Earlier results, collected in US11791016B2, “Methods and systems for computer-generated predictive application of neuroimaging and gene expression mapping data” (NEUMORA THERAPEUTICS, INC., priority 2017, dated 2023).

Tests used:
[1] = molecular target: 5-HT2A serotonin receptor (Homo sapiens, UniProt P28223); settings: healthy human subjects
[2] = molecular target: T1, histamine H3 receptor (Homo sapiens, UniProt Q9Y5N1); settings: patients with schizophrenia
T1 construct: host or cells: patients with schizophrenia, in vivo (Egan et al. 2013)
T1 sequence (Q9Y5N1 whole entry): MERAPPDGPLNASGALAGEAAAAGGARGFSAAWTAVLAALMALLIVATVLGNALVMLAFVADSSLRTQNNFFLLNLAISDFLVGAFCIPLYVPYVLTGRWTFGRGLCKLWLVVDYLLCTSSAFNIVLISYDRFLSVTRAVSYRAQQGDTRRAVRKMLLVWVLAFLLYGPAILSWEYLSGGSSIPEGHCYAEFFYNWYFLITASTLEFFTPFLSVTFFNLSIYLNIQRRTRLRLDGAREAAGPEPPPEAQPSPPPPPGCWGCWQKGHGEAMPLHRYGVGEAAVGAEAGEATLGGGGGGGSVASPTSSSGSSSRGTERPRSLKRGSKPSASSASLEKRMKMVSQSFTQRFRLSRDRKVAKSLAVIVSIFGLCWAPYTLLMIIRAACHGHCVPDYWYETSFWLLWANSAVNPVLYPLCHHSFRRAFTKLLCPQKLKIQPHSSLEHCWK

[3] = molecular target: 5HT6 receptors (Homo sapiens, UniProt P50406)
Chain of 5HT6 receptors (P50406 whole entry): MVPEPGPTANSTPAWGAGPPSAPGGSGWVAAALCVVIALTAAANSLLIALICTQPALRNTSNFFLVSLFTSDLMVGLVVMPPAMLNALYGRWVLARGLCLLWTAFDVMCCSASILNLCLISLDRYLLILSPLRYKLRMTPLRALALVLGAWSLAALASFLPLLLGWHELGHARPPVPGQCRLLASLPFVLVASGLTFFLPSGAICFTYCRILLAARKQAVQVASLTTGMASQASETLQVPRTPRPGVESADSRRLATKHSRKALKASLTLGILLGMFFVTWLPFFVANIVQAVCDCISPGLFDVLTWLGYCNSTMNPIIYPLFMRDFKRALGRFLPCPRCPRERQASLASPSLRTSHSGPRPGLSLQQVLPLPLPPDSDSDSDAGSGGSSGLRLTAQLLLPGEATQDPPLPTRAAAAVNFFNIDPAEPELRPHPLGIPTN

[4] = molecular target: muscarinic M3 (CHRM3) receptor (Homo sapiens, UniProt P20309)
Chain of muscarinic M3 (CHRM3) receptor (P20309 whole entry, species assumed): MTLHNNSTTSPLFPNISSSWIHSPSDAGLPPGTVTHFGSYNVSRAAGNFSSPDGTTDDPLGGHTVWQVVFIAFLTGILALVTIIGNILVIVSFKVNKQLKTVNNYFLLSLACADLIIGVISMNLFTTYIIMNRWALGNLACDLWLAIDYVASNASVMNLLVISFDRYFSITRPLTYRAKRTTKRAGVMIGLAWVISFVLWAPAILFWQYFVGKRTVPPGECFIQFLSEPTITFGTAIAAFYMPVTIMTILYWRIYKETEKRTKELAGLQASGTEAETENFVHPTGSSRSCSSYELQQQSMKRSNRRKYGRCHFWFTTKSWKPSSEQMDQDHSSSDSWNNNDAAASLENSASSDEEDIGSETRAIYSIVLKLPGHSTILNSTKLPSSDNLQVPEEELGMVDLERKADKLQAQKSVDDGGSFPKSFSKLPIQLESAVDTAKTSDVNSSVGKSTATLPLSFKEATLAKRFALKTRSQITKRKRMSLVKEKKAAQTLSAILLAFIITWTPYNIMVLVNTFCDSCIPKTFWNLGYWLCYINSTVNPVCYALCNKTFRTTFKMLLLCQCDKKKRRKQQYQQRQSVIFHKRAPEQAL

Chain of 5-HT2A serotonin receptor (P28223 whole entry): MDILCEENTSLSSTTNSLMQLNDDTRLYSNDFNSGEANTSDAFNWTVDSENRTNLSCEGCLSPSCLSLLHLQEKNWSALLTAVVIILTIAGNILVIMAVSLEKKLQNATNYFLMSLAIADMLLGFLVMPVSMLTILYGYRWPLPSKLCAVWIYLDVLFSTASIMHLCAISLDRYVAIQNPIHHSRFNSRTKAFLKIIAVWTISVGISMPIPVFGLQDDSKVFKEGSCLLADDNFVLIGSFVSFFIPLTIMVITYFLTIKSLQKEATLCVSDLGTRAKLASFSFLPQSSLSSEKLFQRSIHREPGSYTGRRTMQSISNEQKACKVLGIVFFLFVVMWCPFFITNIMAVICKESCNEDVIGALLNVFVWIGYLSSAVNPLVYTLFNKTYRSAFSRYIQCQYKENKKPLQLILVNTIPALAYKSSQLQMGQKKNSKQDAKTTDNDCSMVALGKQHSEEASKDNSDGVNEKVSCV

CCN(CC)C(=O)[C@@H]1C=C2c3cccc4[nH]cc(c34)C[C@H]2N(C)C1 [LSD, lysergic acid diethylamide]
change in mean functional connectivity (Global Brain Connectivity, GBC) ([1]; acute administration, fMRI-derived cortical map): large increase in occipital visual cortex

Cc1nc2cccc(C(F)(F)F)c2c(=O)n1-c1ccc(OCCCN2CCCC2)cc1 [MK-0249]
improvement of cognitive deficits [2]: failed to improve cognitive deficits

O=C1Nc2ccc(Cl)cc2[C@@](C#CC2CC2)(C(F)(F)F)O1 [efavirenz]
mode of action at 5HT6 receptors [3]: inverse agonist activity
mode of action at muscarinic M3 (CHRM3) receptor [4]: antagonist activity

O=C(c1ccc(F)cc1)C1CCN(CCn2c(=O)[nH]c3ccccc3c2=O)CC1 [ketanserin]
effect on LSD-induced neural change (GBC) ([1]; pre-administration before LSD): blocked
effect on behavioral effects of LSD ([1]; pre-administration before LSD): blocked
